Results as given in patent publication US6362369B1, “Phthalic acid diamide derivatives fluorine-containing aniline compounds as starting material, agricultural and horticultural insecticides, and a method for application of the insecticides” (Nihon Nohyaku Co., Ltd., priority 1997, dated 2002).

What was measured:
Format in all cases: in vivo
[1] = test system: common cutworm (Spodoptera Litura); assay: Insecticidal effect on common cutworm (Test Example 2); details: 500 ppm, 25° C.; for Insecticidal effect, Test Example 2: cabbage leaf immersed; for Insecticidal effect, Test Example 2 / Insecticidal effect on common cutworm (Test Example 2), judged grade: eight days after inoculation; for Insecticidal effect (Test Example 2), judged from mortality / Insecticidal effect on common cutworm (Test Example 2), judged grade: cabbage leaf dip; for Insecticidal effect (Test Example 2), judged from mortality: 8 days after inoculation; for Insecticidal effect on common cutworm (Test Example 2), judged grade: second-instar larvae
Outline: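 Second-instar larvae placed in 9 cm Petri dishes with air-dried treated material, held at 25 °C. Dead and live insects counted 8 days after inoculation; mortality calculated and scored against a set criterion. Triplicate groups of 10 insects.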

[2] = test system: diamondback moth (Plutella xylostella); assay: Insecticidal effect on diamondback moth (Test Example 1); details: for Insecticidal effect, Test Example 1 / Insecticidal effect (Test Example 1), judged from mortality: diamondback moth; for Insecticidal effect (Test Example 1), judged from mortality: judged by the criterion of Test Example 1; for Insecticidal effect on diamondback moth (Test Example 1), judged grade: mortality judged according to the criterion shown in Test Example 1
Outline: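 Oviposition by adults on Chinese cabbage seedling; immersion; air-dry; 25° C room. Count of hatched larvae at day 6 post-immersion → mortality → effect graded by criterion. Triplicate, 10 insects/group.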

[3] = test system: rice leafroller (Cnaphalocrocis medinalis); assay: Insecticidal effect on rice leafroller (Test Example 3); details: 500 ppm, 25° C., humidity 70%; for Insecticidal effect, Test Example 3: rice lamina immersed; for Insecticidal effect, Test Example 3 / Insecticidal effect on rice leafroller (Test Example 3), judged grade: four days after inoculation; for Insecticidal effect (Test Example 3), judged from mortality / Insecticidal effect on rice leafroller (Test Example 3), judged grade: rice lamina dip; for Insecticidal effect (Test Example 3), judged from mortality: 4 days after inoculation; for Insecticidal effect on rice leafroller (Test Example 3), judged grade: third-instar larvae
Outline: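 Insecticidal effect is judged by a predefined criterion from dead/alive counts four days after infesting air-dried lamina with third-instar larvae, kept on moistened filter paper at 25° C, 70% humidity.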

[4] = common cutworm second-instar larvae
[5] = mortality judged by criterion of Test Example 1
[6] = rice leafroller third-instar larvae
[7] = second-instar larvae of common cutworm
[8] = third-instar larvae of rice leafroller
[9] = judged by the mortality criterion of Test Example 1

Row | SMILES | Insecticidal effect, Test Example 2 [1, 4] | Insecticidal effect, Test Example 1 [2, 5] | Insecticidal effect, Test Example 3 [3, 6] | Insecticidal effect, Test Example 2 [1, 7] | Insecticidal effect, Test Example 1 [2, 9] | Insecticidal effect, Test Example 3 [3, 8] | also measured
1 | Cc1cc(C(F)(F)C(F)(F)F)ccc1NC(=O)c1cccc(Cl)c1C(=O)NCc1cccc(Cl)c1 [compound 1335] | C (89-80) | A (100) | A (100) | – | – | – | –
2 | C#CC(C)(C)NC(=O)c1cccc(Cl)c1C(=O)Nc1ccc(C(F)(F)C(F)(F)F)cc1C [compound 1467] | – | – | – | – | – | – | Insecticidal effect (Test Example 2), judged from mortality [1, 7]: A (100); Insecticidal effect (Test Example 1), judged from mortality [2]: A (100); Insecticidal effect (Test Example 3), judged from mortality [3, 8]: A (100)
3 | CC(C)NC(=O)c1c(F)cccc1C(=O)Nc1ccc(C(F)(F)C(F)(F)F)cc1Cl [compound 1516] | – | – | – | – | – | – | Insecticidal effect (Test Example 2), judged from mortality [1, 7]: A (100); Insecticidal effect (Test Example 1), judged from mortality [2]: A (100); Insecticidal effect (Test Example 3), judged from mortality [3, 8]: A (100)
4 | Cc1cc(C(F)(F)C(F)(F)C(F)(F)C(F)(F)F)ccc1NC(=O)c1c(Br)cccc1C(=O)NC(C)C [compound 318] | – | – | – | B (99-90) | A (100) | A (100) | –
5 | CCc1cc(OC(F)(F)F)ccc1NC(=O)c1cccc(I)c1C(=O)NC(C)(C)C [compound 1211] | A (100) | A (100) | A (100) | – | – | – | –
6 | Cc1cccc(NC(=O)c2c(Cl)cccc2C(=O)NC(C)C)c1C [compound 213] | – | – | – | A (100) | A (100) | A (100) | –
7 | CCN(CC)C(=O)c1c(I)cccc1C(=O)Nc1ccc(Cl)cc1C [compound 1557] | – | – | – | – | – | – | Insecticidal effect (Test Example 2), judged from mortality [1, 7]: A (100); Insecticidal effect (Test Example 1), judged from mortality [2]: A (100); Insecticidal effect (Test Example 3), judged from mortality [3, 8]: A (100)
8 | Cc1cc(OC(F)(F)C(F)Cl)ccc1NC(=O)c1cccc(Br)c1C(=O)NC(C)C (stereo not drawn) [compound 292] | – | – | – | A (100) | A (100) | A (100) | –
9 | CC(C)NC(=O)c1cccc(Cl)c1C(=O)Nc1ccc(Cl)cc1F [compound 212] | – | – | – | D (79-50) | A (100) | A (100) | –
10 | CCc1cc(I)ccc1NC(=O)c1cccc(I)c1C(=O)NC(C)C [compound 951] | A (100) | A (100) | A (100) | – | – | – | –
11 | Cc1cc(C(F)(F)C(F)(F)F)ccc1NC(=O)c1cccc(Cl)c1C(=O)NCc1ccccn1 [compound 1355] | A (100) | A (100) | A (100) | – | – | – | –
12 | CC(C)NC(=O)c1c(Cl)cccc1C(=O)Nc1ccc(Oc2ccc(C(F)(F)F)cc2Cl)cc1F [compound 903] | – | – | – | – | – | – | Insecticidal effect on common cutworm (Test Example 2), judged grade [1]: A (100); Insecticidal effect on diamondback moth (Test Example 1), judged grade [2]: A (100); Insecticidal effect on rice leafroller (Test Example 3), judged grade [3]: A (100)
13 | CC(C)NC(=O)c1cccc(Cl)c1C(=O)Nc1ccc(C(F)(F)C(F)(F)F)cc1 [compound 894] | – | – | – | – | – | – | Insecticidal effect on common cutworm (Test Example 2), judged grade [1]: A (100); Insecticidal effect on diamondback moth (Test Example 1), judged grade [2]: A (100); Insecticidal effect on rice leafroller (Test Example 3), judged grade [3]: A (100)
14 | CC(C)NC(=O)c1cccc(I)c1C(=O)Nc1ccc(C(F)(C(F)(F)F)C(F)(F)F)cc1 [compound 416] | – | – | – | A (100) | A (100) | A (100) | –
15 | Cc1cc(OC(F)F)ccc1NC(=O)c1cccc(I)c1C(=O)NC1CC1 [compound 1452] | – | – | – | – | – | – | Insecticidal effect (Test Example 2), judged from mortality [1, 7]: A (100); Insecticidal effect (Test Example 1), judged from mortality [2]: A (100); Insecticidal effect (Test Example 3), judged from mortality [3, 8]: A (100)
16 | CCN(CC)C(=O)c1c(I)cccc1C(=O)Nc1ccc(C(F)(F)C(F)(F)F)cc1C [compound 1561] | – | – | – | – | – | – | Insecticidal effect (Test Example 2), judged from mortality [1, 7]: A (100); Insecticidal effect (Test Example 1), judged from mortality [2]: A (100); Insecticidal effect (Test Example 3), judged from mortality [3, 8]: A (100)
17 | CC(C)NC(=O)c1c(Cl)cccc1C(=O)Nc1ccc(SC(F)(F)F)cc1 [compound 997] | A (100) | A (100) | A (100) | – | – | – | –
18 | CCN(CC)C(=O)c1c(I)cccc1C(=O)Nc1ccc(OC(F)(F)F)cc1F [compound 1190] | A (100) | A (100) | A (100) | – | – | – | –
19 | Cc1cc(OC(F)(F)F)ccc1NC(=O)c1ccc(F)c(Cl)c1C(=O)NC(C)C [compound 1227] | A (100) | A (100) | A (100) | – | – | – | –

Row | SMILES | Insecticidal effect, Test Example 2 [1, 4] | Insecticidal effect, Test Example 1 [2, 5] | Insecticidal effect, Test Example 3 [3, 6] | Insecticidal effect, Test Example 2 [1, 7] | Insecticidal effect, Test Example 1 [2, 9] | Insecticidal effect, Test Example 3 [3, 8] | also measured
20 | C#CC(C)(C)NC(=O)c1c(I)cccc1C(=O)Nc1ccc(C(F)(F)C(F)(F)F)cc1C [compound 1629] | – | – | – | – | – | – | Insecticidal effect (Test Example 2), judged from mortality [1, 7]: A (100); Insecticidal effect (Test Example 1), judged from mortality [2]: A (100); Insecticidal effect (Test Example 3), judged from mortality [3, 8]: A (100)
21 | C#CC(C)(C)NC(=O)c1c(Cl)cccc1C(=O)Nc1ccc(OC(F)(F)F)cc1C [compound 1602] | – | – | – | – | – | – | Insecticidal effect (Test Example 2), judged from mortality [1, 7]: A (100); Insecticidal effect (Test Example 1), judged from mortality [2]: A (100); Insecticidal effect (Test Example 3), judged from mortality [3, 8]: A (100)
22 | CC(=O)c1ccc(NC(=O)c2cccc(Cl)c2C(=O)NC(C)C)cc1 [compound 109] | – | – | – | A (100) | A (100) | C (89-80) | –
23 | Cc1ccc(Cl)cc1NC(=O)c1cccc([N+](=O)[O-])c1C(=O)NC1CC1 [compound 851] | – | – | – | – | – | – | Insecticidal effect on common cutworm (Test Example 2), judged grade [1]: D (79-50); Insecticidal effect on diamondback moth (Test Example 1), judged grade [2]: A (100); Insecticidal effect on rice leafroller (Test Example 3), judged grade [3]: A (100)
24 | CC(C)NC(=O)c1c(I)cccc1C(=O)Nc1ccc(C(F)(F)C(F)(F)F)cc1F [compound 1385] | A (100) | A (100) | A (100) | – | – | – | –
25 | CC(C)(C)NC(=O)c1c(Cl)cccc1C(=O)Nc1ccc(SC(F)(F)Br)cc1 [compound 1114] | A (100) | A (100) | A (100) | – | – | – | –
26 | CC(C)NC(=O)c1cc(Cl)ccc1C(=O)Nc1ccc(OC(F)(F)F)cc1 [compound 172] | – | – | – | A (100) | A (100) | D (79-50) | –
27 | CC(C)NC(=O)c1c(Cl)cccc1C(=O)Nc1ccc(OC(F)F)cc1C(F)(F)F [compound 163] | – | – | – | A (100) | A (100) | A (100) | –
28 | CC(C)NC(=O)c1c(Cl)cccc1C(=O)Nc1ccc(Cl)cc1Cl [compound 112] | – | – | – | A (100) | A (100) | A (100) | –
29 | Cc1cc([S+]([O-])C(F)(F)F)ccc1NC(=O)c1cccc(I)c1C(=O)NC(C)C (stereo not drawn) [compound 1168] | A (100) | A (100) | A (100) | – | – | – | –
30 | Cc1ccccc1NC(=O)c1ccc(Cl)cc1C(=O)NC(C)C [compound 170] | – | – | – | D (79-50) | A (100) | B (99-90) | –
31 | Cc1cc(C(F)(F)C(F)(F)F)ccc1NC(=O)c1cccc(Cl)c1C(=O)NCC(C)O (stereo not drawn) [compound 1315] | A (100) | A (100) | A (100) | – | – | – | –
32 | Cc1cc(SC(F)(F)C(F)(F)C(F)(F)F)ccc1NC(=O)c1cccc(I)c1C(=O)NC(C)C [compound 403] | – | – | – | B (99-90) | A (100) | A (100) | –
33 | CC(C)NC(=O)c1c(Cl)cccc1C(=O)Nc1ccc2c(c1)OC(F)(F)C(F)(F)O2 [compound 977] | A (100) | A (100) | A (100) | – | – | – | –
34 | CCN(CC)C(=O)c1c(C(=O)Nc2ccc(C(F)(F)C(F)(F)F)cc2C)cccc1[N+](=O)[O-] [compound 1550] | – | – | – | – | – | – | Insecticidal effect (Test Example 2), judged from mortality [1, 7]: A (100); Insecticidal effect (Test Example 1), judged from mortality [2]: A (100); Insecticidal effect (Test Example 3), judged from mortality [3, 8]: A (100)
35 | CC(C)NC(=O)c1c(I)cccc1C(=O)Nc1ccc(SCC(F)(F)F)cc1 [compound 355] | – | – | – | C (89-80) | A (100) | A (100) | –
36 | Cc1cc(OC(F)(F)C(F)Cl)ccc1NC(=O)c1c(I)cccc1C(=O)NC(C)C (stereo not drawn) [compound 455] | – | – | – | – | – | – | Insecticidal effect on common cutworm (Test Example 2), judged grade [1]: B (99-90); Insecticidal effect on diamondback moth (Test Example 1), judged grade [2]: A (100); Insecticidal effect on rice leafroller (Test Example 3), judged grade [3]: A (100)
37 | CC(C)(C)NC(=O)c1c(I)cccc1C(=O)Nc1ccc(OC(F)(F)F)cc1 [compound 940] | A (100) | A (100) | A (100) | – | – | – | –
